The source of these data is ChEMBL document CHEMBL5518235, “Identification of Novel Series of Potent and Selective Relaxin Family Peptide Receptor 1 (RXFP1) Agonists” (J Med Chem, 2024).

Series [1] deals with T1, Relaxin receptor 1 (Homo sapiens) (UniProt Q9HBX9).
T1 sequence (whole entry): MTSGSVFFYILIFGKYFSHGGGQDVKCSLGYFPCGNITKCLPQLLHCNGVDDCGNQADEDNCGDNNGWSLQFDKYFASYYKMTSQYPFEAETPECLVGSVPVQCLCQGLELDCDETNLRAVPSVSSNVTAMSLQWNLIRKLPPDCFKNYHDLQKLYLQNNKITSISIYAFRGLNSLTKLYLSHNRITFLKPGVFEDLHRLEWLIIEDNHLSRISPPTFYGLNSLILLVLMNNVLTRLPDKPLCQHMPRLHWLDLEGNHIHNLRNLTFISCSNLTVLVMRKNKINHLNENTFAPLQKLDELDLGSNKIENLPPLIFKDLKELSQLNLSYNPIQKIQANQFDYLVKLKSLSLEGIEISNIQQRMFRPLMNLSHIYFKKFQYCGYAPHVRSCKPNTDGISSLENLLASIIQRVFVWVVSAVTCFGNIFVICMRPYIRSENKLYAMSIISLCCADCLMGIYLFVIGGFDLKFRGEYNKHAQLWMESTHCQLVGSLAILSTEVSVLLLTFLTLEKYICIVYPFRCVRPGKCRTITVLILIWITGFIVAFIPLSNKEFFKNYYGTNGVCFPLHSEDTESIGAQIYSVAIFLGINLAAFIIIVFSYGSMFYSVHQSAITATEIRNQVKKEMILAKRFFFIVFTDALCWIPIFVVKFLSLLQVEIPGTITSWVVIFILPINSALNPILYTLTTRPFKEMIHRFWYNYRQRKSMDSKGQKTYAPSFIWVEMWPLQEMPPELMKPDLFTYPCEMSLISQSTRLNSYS
In words: Agonist activity at human RXFP1 expressed in T-Rex-CHO-K1 cells assessed as stimulation of cAMP production by measuring maximal efficacy at 50 uM incubated for 45 mins by HTRF assay relative to control. As to conditions: filed as agonist. The series is classed as functional, cell-based.

For series [2], the target named is T2, Relaxin receptor 1 (Rattus norvegicus) (UniProt Q6R6I6).
T2 sequence (whole entry): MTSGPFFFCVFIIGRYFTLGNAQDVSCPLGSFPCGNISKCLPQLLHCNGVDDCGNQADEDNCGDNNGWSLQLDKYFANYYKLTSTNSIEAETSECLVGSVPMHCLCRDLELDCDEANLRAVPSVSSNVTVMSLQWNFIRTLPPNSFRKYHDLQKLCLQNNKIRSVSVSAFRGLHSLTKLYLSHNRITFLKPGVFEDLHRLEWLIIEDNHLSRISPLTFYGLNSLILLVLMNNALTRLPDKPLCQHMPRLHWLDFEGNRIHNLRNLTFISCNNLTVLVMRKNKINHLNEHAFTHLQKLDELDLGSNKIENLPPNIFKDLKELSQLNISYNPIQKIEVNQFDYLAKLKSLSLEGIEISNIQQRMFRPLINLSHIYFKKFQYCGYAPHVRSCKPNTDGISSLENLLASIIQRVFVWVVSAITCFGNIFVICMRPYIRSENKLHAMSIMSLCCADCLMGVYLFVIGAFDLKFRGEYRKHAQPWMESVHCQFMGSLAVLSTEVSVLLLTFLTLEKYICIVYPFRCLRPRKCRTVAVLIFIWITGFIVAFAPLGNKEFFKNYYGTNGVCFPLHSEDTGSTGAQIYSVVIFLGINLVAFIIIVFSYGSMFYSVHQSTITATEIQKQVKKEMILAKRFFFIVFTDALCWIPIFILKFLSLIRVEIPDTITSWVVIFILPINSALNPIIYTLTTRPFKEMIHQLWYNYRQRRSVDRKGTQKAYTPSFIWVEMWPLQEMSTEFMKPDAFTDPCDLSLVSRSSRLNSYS
In words: Agonist activity at rat RXFP1 expressed in T-Rex-CHO-K1 cells assessed as stimulation of cAMP production at 40 uM incubated for 45 mins by HTRF assay. The series is classed as functional, cell-based.

Series [3] concerns the target T3, Relaxin receptor 1 (Homo sapiens, UniProt Q9HBX9).
T3 sequence (Q9HBX9 whole entry): T1 sequence (whole entry)
The experiment in a line: Agonist activity at human RXFP1 expressed in T-Rex-CHO-K1 cells assessed as stimulation of cAMP production incubated for 45 mins by HTRF assay. The series is classed as functional, cell-based.

A short description of series [4]: Lipophilicity, logD of the compound in 1-octanol and phosphate buffer at pH 7.4 incubated for 3 hrs by shake flask method based LC/MS/MS analysis. In kind it is physicochemical. Conditions: 1-octanol/phosphate buffer, pH 7.4.
Series [5] can be described thus: Metabolic stability in cryopreserved human hepatocytes assessed as intrinsic clearance measured per 10^6 cells at 1 uM after 120 mins by LC-MS/MS analysis. The series is classed as ADME, cell-based, Hepatocyte. Conditions: cryopreserved hepatocytes, read-out: CLH.
Series [6] in a line: Metabolic stability in cryopreserved human hepatocytes assessed as unbound intrinsic clearance measured per 10^6 cells at 1 uM measured after 120 mins by LC-MS/MS analysis. The series is classed as ADME, cell-based, Hepatocyte. As to conditions: 2 h.
The target in series [7] is T4, Relaxin receptor 1 (Rattus norvegicus, UniProt Q6R6I6).
T4 sequence (Q6R6I6 whole entry): T2 sequence (whole entry)
In words: Agonist activity at rat RXFP1 expressed in T-Rex-CHO-K1 cells assessed as stimulation of cAMP production incubated for 60 mins by HTRF assay. The series is classed as functional, cell-based.

Series [8] has as its target T2, Relaxin receptor 1 (Rattus norvegicus). In words: Agonist activity at rat RXFP1 expressed in T-Rex-CHO-K1 cells assessed as stimulation of cAMP production by measuring maximal efficacy incubated for 60 mins by HTRF assay relative to control. In kind it is functional, cell-based. Conditions: filed as agonist.
A short description of series [9]: Protein binding in rat plasma assessed as free fraction at 5 uM incubated for 18 hrs by equilibrium dialysis based LC-MS/MS analysis. In kind it is ADME, cell-free.
Series [10] can be described thus: Metabolic stability in Han Wistar rat hepatocytes assessed as intrinsic clearance measured per 10^6 cells at 1 uM after 120 mins by LC-MS/MS analysis. The series is classed as ADME, cell-based, Hepatocyte. Conditions: read-out: CLH.
Series [11] in a line: Metabolic stability in Han Wistar rat hepatocytes assessed as unbound intrinsic clearance measured per 10^6 cells at 1 uM after 120 mins by LC-MS/MS analysis. The series is classed as ADME, cell-based, Hepatocyte. Conditions: 2 h.
A short description of series [12]: Volume of distribution at steady state in Han Wistar rat at 0.76 micromol/kg, iv by LC-MS/MS analysis. In kind it is ADME, organism-based. Conditions: in vivo, dose 0.76 µmol/kg, read-out: Vdss.
Series [13] can be described thus: Clearance in Han Wistar rat at 0.76 micromol/kg, iv by LC-MS/MS analysis. The series is classed as ADME, organism-based. As to conditions: in vivo, dose 0.76 µmol/kg.
A short description of series [14]: Half-life in Han Wistar rat at 0.76 micromol/kg, iv by LC-MS/MS analysis. The series is classed as ADME, organism-based. As to conditions: in vivo, dose 0.76 µmol/kg.
Series [15] can be described thus: Oral bioavailability in Han Wistar rat at 1.52 micromol/kg by LC-MS/MS analysis. In kind it is ADME, organism-based. Conditions: in vivo, 1.52 µmol/kg.
Series [16] concerns the target T1, Relaxin receptor 1 (Homo sapiens). The experiment in a line: Agonist activity at human RXFP1 expressed in T-Rex-CHO-K1 cells assessed as stimulation of cAMP production at 50 uM incubated for 45 mins by HTRF assay relative to control. The series is classed as functional, cell-based. As to conditions: filed as agonist.
The nature of series [17]: Metabolic stability in human liver microsomes assessed as intrinsic clearance at 1 uM incubated for 30 mins in presence of NADPH by LC-MS/MS analysis. In kind it is ADME, Microsome. Conditions: liver microsomes, read-out: CLH.
Series [18] in a line: Metabolic stability in human liver microsomes assessed as unbound intrinsic clearance at 1 uM incubated for 30 mins in presence of NADPH by LC-MS/MS analysis. In kind it is ADME, Microsome. As to conditions: 0.5 h.
Series [19] has as its target T1, Relaxin receptor 1 (Homo sapiens). The experiment in a line: Displacement of [125I]relaxin H2 from human RXFP1 expressed in CHO cells incubated for 90 mins by radioligand binding assay. In kind it is cell-based.
Series [20] in a line: Kinetic solubility of compound at pH 7.4 incubated for 24 hrs by shake-flask method based LC-MS/MS analysis. As to conditions: buffer, read-out: Kinetic_solubility. The series is classed as physicochemical.
Series [21] can be described thus: Metabolic stability in Han Wistar rat hepatocytes assessed as unbound intrinsic clearance measured […] at 1 uM after 120 mins by LC-MS/MS analysis. The series is classed as ADME, cell-based, Hepatocyte. Conditions: 2 h.
Series [22] can be described thus: Volume of distribution at steady state in Han Wistar rat at 0.99 micromol/kg, iv by LC-MS/MS analysis. As to conditions: in vivo, dose 0.99 µmol/kg, read-out: Vdss. The series is classed as ADME, organism-based.
Series [23] can be described thus: Clearance in Han Wistar rat at 0.99 micromol/kg, iv by LC-MS/MS analysis. In kind it is ADME, organism-based. Conditions: in vivo, dose 0.99 µmol/kg.
Series [24] in a line: Half-life in Han Wistar rat at 0.99 micromol/kg, iv by LC-MS/MS analysis. In kind it is ADME, organism-based. Conditions: in vivo, dose 0.99 µmol/kg.
Series [25] is described as follows: Oral bioavailability in Han Wistar rat at 2.0 micromol/kg by LC-MS/MS analysis. As to conditions: in vivo, 2 µmol/kg. In kind it is ADME, organism-based.
Series [26] is described as follows: Metabolic stability in human liver microsomes assessed as unbound fraction at 1 uM incubated for 4 hrs by equilibrium dialysis based LC-MS/MS analysis. The series is classed as ADME, Microsome.
Series [27] in a line: Metabolic stability in rat hepatocytes assessed as unbound fraction at 1 uM incubated for 4 hrs by equilibrium dialysis based LC-MS/MS analysis. In kind it is ADME, cell-based, Hepatocyte.

In brackets after ≈: the same amount, converted by molar mass. Activity calls are given as the source filed them. No cut-off for these calls is given here.

Turning to `COc1cc(F)c(-c2ccc(C(=O)O)cc2)cc1C(=O)N[C@H]1[C@@H](C(=O)Nc2cccc(S(=O)(=O)C(F)(F)F)c2)[C@@H]2C=C[C@H]1C2` (racemic) [listing 1 of 2 here], the Emax in series [1] came out at 92%. Moreover, in series [2], the outcome was inactive.
Turning to `COc1cc(F)c(O[C@H]2CC[C@@H](C(=O)O)CC2)cc1C(=O)N[C@@H]1[C@H]2CC[C@H](C2)[C@@H]1C(=O)Nc1cccc(S(=O)(=O)C(F)(F)F)c1`, the concentration for a half-maximal effect (EC50) in series [3] is 0.0398 µM; in series [7] it was 10 µM. The Emax in series [1] worked out at 102%; in series [8] it was 43%. In series [4], this compound displayed a logD at 3 h of 3.5. The figures for the hepatocyte CLint at 1 µM in [5] and in series [10] were 15 µL/min/1e6 cells and 23 µL/min/1e6 cells, respectively. Besides, the CL free in series [6] was 259 µL/min; in series [11], 397 µL/min. In addition, the fraction unbound at 18 h, 5 µM in series [9] worked out at 0.011. The Vd in series [12] came to 1.7 L/kg. This compound also showed a clearance in [13] of 76 mL/min/kg. In addition, the half-life in [14] was 1.2 h. The same compound registered a bioavailability in series [15] of 2.6%.
For `O=C(O)c1ccc(-c2cc(C(=O)N[C@H]3[C@@H](C(=O)Nc4cccc(S(=O)(=O)C(F)(F)F)c4)[C@@H]4C=C[C@H]3C4)ccc2F)cc1` (racemic), in [3], the EC50 is above 50.1 µM. Also, in series [16], the Activity worked out at 57%.
Turning to `COc1cc(F)c(-c2ccc(C(=O)O)cc2)cc1C(=O)N[C@H]1[C@@H](C(=O)Nc2cccc(S(=O)(=O)C(F)(F)F)c2)[C@@H]2C=C[C@H]1C2` (racemic) [listing 2 of 2 here], in series [3], the EC50 is 0.2 µM. In [4], the logD at 3 h is 3.4. Also, the microsomal CLint at 1 µM in series [17] is 6.3 µL/min/mg. For the same compound, the CL free in series [18] was 121 µL/min/mg; in series [11], 457 µL/min. The fraction unbound at 18 h, 5 µM in series [9] is 0.0031. For the same compound, in series [10], the hepatocyte CLint at 1 µM was 16 µL/min/1e6 cells. Moreover, in series [12], the Vd stood at 0.92 L/kg. Moreover, the clearance in series [13] was 73 mL/min/kg. Further, the half-life in [14] is 0.37 h.
Turning to `COc1cc(F)c(O[C@H]2CC[C@@H](C(=O)O)CC2)cc1C(=O)N[C@H]1[C@@H](C(=O)Nc2ccc(F)c(C(F)(F)F)c2)[C@@H]2C=C[C@H]1C2`, the EC50 in [3] is 0.0158 µM. Further, in series [1], the Emax worked out at 124%. This compound had a logD at 3 h in [4] of 3.55. Also, the hepatocyte CLint at 1 µM in [5] was 7.7 µL/min/1e6 cells. Besides, the CL free in series [6] was found to be 175 µL/min. In series [19], the result was inactive.
As to `CC(C)Oc1ccccc1C(=O)Nc1ccccc1C(=O)Nc1cccc(S(=O)(=O)C(F)(F)F)c1`, the logD at 3 h in [4] is above 4. Besides, the solubility kinetic at 24 h in series [20] was 1 µM (≈ 0.507 µg/mL). The microsomal CLint at 1 µM in series [17] is 55 µL/min/mg. For the same compound, the values for the CL free in series [18], in series [6] and in [21] were 37 10^3uL/min/mg, 3.07 10^3uL/min and 5.4 µL/min, respectively. The hepatocyte CLint at 1 µM in series [5] is 12.6 µL/min/1e6 cells; in series [10], 22 µL/min/1e6 cells. The fraction unbound at 18 h, 5 µM in [9] is below 0.0002. Besides, the result in series [2] was inactive. The Vd in [22] worked out at 7.7 L/kg. The compound also came in with a clearance in series [23] of 30 mL/min/kg. Moreover, the half-life in [24] is 4.3 h. The bioavailability in series [25] stood at 40%. For the same compound, the fraction unbound at 4 h, 1 µM was 2e-05 in series [26] and 4e-05 in series [27].
